Reference: patent publication US20030162206A1, “Ceramide kinase and DNA encoding it” (SANKYO COMPANY, LIMITED, priority 2000, published 2003)

Columns and labels:
[1] = target: T1, protein of the present invention having ceramide kinase activity (hCERK1) (Homo sapiens, UniProt Q8TCT0); assay: Measurement of ceramide kinase activity, lysate of HEK293 cells transfected with pCR3.1-CERK1, [32P]-γ-ATP, TLC; type: biochemical; conditions: for Effect on ceramide kinase activity (activated / inhibited): C6-ceramide as substrate, examination of optimum assay conditions; for Phosphorylation by the protein of the present invention (in words): optimum assay conditions for ceramide kinase; for Ratio of activities (pCR3.1-CERK1/pCR3.1) / Phosphorylation activity, Transformed with pCR3.1-CERK 1: substance used as substrate; for Phosphorylation activity, Transformed with pCR3.1-CERK 1: HEK293 cell lysate, [32P]-γ-ATP, 37° C. 20 minutes, pH 7.0, natural ceramide micellized with octyl glucoside
T1 construct: expressed in transfected cells; host or cells: HEK293 (ATCC CRL-1573), transient transfection with pCR3.1-CERK1; sonicated cell lysate
T1 sequence (Q8TCT0 1-537): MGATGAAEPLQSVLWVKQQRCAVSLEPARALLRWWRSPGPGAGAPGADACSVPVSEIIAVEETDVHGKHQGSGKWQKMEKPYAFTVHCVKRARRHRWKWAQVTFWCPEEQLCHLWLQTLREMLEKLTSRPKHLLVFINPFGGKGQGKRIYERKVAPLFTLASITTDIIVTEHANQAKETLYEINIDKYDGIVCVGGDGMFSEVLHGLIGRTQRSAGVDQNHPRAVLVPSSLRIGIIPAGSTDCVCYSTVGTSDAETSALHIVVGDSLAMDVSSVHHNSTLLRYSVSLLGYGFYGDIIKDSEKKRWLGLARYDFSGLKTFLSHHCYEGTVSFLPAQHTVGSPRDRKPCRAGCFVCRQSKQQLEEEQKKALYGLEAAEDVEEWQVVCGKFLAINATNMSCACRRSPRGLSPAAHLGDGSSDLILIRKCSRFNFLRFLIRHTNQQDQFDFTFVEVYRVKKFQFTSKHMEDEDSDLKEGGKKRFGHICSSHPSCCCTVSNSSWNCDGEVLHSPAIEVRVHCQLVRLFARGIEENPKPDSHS
Procedure: Specifically, the solution containing the protein, HEPES buffer solution (pH 7.0) containing magnesium chloride, EDTA, dithiothreitol, sodium vanadate, and protease inhibitor (for example, Complete (trademark), manufactured by Boehringer Manheim), C6 ceramide dissolved in a substrate (bovine serum albumin (hereinafter referred to as “BSA”)) solution having a concentration of 4 mg/ml or ceramide micellized by using octyl glucoside (a preparation purified from bovine fetal brain, manufactured by Sigma), and radio-labeled ^32P-ATP are mixed and incubated at 37° C. to perform a ceramide kinase reaction. Then, the reaction is stopped by adding 1N hydrochloric acid thereto and chloroform:methanol:concentrated hydrochloric acid (100:200: 1 v/v) is added thereto and extracted. The resultant lower layer (chloroform phase) is developed on thin layer chromatography (hereinafter referred to as “TLC”), and analyzed. The ceramide kinase activity can be determined by quantifying the spot in said TLC corresponded to ceramide-1-phosphate (hereinafter referred to as “Cer-1-P”) which is a product.
(§1) That is, after putting 6×10^5 HEK293 cells per well into a polylysine-coated 6-well plate for tissue culture (manufactured by Iwaki Glass) and incubating at 37° C. for 24 hours, they were transfected with one μg of pCR3.1-CERK 1 by using a transfection reagent (Lipofectamin plus, manufactured by Life technology) according to the directions attached thereto. After the operation for the transfection was finished, cells were cultured at 37° C. for one day and the conditioned medium was removed. Then, the cells were collected by using buffer solution A (10% glycerol, 1 mM dithiothreitol, 1 mM EDTA, 1 mM sodium vanadate, protease inhibitor (Complete™, manufactured by Boeheringer Mannheim), a 200 mM Hepes buffer solution, pH 7.0). By ultrasonication with a probe-type sonicater (Cell Disrupter 200, manufactured by Branson), the collected cells were broken into pieces, and the resulting cell lysate was diluted and then used for measurement of enzyme activity as shown in Example 3.
(§2) Specifically, 10 μl of 1 mM C6-ceramide prepared by using BSA solution (4 mg/ml) and 10 μl of a mixture of 100 mM magnesium chloride and 2 mM of radiolabeled [^32P]-gamma-ATP (manufactured by NEN) were added to 180 μl of buffer B [1 mM dithiothreitol, 1 mM EDTA, 1 mM sodium vanadate, protease inhibitor (Complete™, manufactured by Boeheringer Mannheim), 1 mM calcium chloride, a 200 mM HEPES buffer solution, pH 7.0] which further contains the protein of the present invention prepared in Example 2, and then incubated at 37° C. for 20 minutes to conduct the ceramide kinase reaction. Next, after stopping the reaction by adding 20 μl of 1 N hydrochloric acid, 800 μl (100:200:1, v/v) of chloroform:methanol:concentrated hydrochloric acid, 250 μl of 2.5 M potassium chloride, and 250 μl of chloroform were added thereto and extracted. The resulting extract was subjected to centrifugation at 2000×g, and the obtained lower layer (chloroform phase) was developed and analyzed on TLC.
That is, a necessary amount of ceramide dissolved in chloroform was dried to be solid under a nitrogen air current, and the buffer solution B which contains 0.2% of octyl glucoside was added thereto, and then subjected to ultrasonication, and finally 100 μM ceramide solution was provided. 90 μl of the mixture of buffer solution B containing the enzyme solution and 10 μl of the mixture consisting of 100 mM magnesium chloride and 2 mM radio-labeled [^32P]-γ-ATP were added to 100 μl of said substrate solution, and then incubated at 37° C. for 20 minutes to perform the ceramide kinase reaction. Extraction of Cer-1-P was conducted by a similar procedure to the above-mentioned.

[2] = test system: enzyme activity which HEK293 cell has endogenously; assay: Phosphorylation activity of lysate of HEK293 cells transfected with only pCR3.1 vector (negative-reaction control); type: biochemical, human; conditions: substance used as substrate; lysate of HEK293 cells expressing only pCR3.1 vector
Procedure: as §1, with “In order to examine whether the protein of the present invention has ceramide kinase activity, the human embryo kidney cell HEK293 (ATCC CRL-1573) was transfected with the expression vector pCR3.1-CERK1 obtained above. That is,” for “That is,”, “Example 3. […]” for “Example 3.”
as §2, with “Next, after stopping the reaction by adding 20 μl of 1 N hydrochloric acid, 800 μl (100:200:1, v/v) of chloroform:methanol:concentrated hydrochloric acid, 250 μl of 2.5 M potassium chloride, and 250 μl of chloroform were added thereto and extracted.” left out, “TLC. […]” for “TLC.”

Compound | Effect on ceramide kinase activity (activated / inhibited) [1] | Phosphorylation by the protein of the present invention (in words) [1] | Ratio of activities (pCR3.1-CERK1/pCR3.1) [1] | Phosphorylation activity, Transformed with pCR3.1-CERK 1 [1] | Phosphorylation activity, Transformed with pCR3.1 [2] | Km ([1]; substrate C6-ceramide)
[Cl-].[Cl-].[Mg+2] [magnesium chloride] | activated | – | – | – | – | –
C[C@H](CCC(=O)O)[C@H]1CC[C@H]2[C@@H]3[C@H](O)C[C@@H]4C[C@H](O)CC[C@]4(C)[C@H]3C[C@H](O)[C@]12C [cholic acid] | inhibited | – | – | – | – | –
phosphatidylserine | inhibited | – | – | – | – | –
diacylglycerol [DG] | – | hardly phosphorylated | 1 | 150 pmol/min/mg | 130 pmol/min/mg | –
CCCCCCCCCCCCC/C=C/[C@@H](O)[C@@H](N)CO [D-erythro-sphingosine] | – | hardly phosphorylated | 1 | 50 pmol/min/mg | 50 pmol/min/mg | –
CCCCCCCCCCCCC/C=C/[C@@H](O)[C@H](CO)NC(=O)CCCCC [C6-ceramide, N-hexanoyl form of D-erythro-sphingosine] | – | high efficiency | 183 | 1280 pmol/min/mg | 7 pmol/min/mg | 7 µM
[Ca+2].[Cl-].[Cl-] [calcium chloride] | activated | – | – | – | – | –
Triton X-100 | inhibited | – | – | – | – | –
